Assay results reported in ChEMBL document CHEMBL1201862, “PubChem BioAssay data set” (2004).
Active and inactive are the calls of the source.

Experiments:
[1] = test system: HT-1080; experiment: cytotoxicity in HT1080 fibrosarcoma cells, cell-based, fluorescence readout (AID 620); assay type: functional; conditions: Homo sapiens
[2] = MC4R antagonists, dose response, counter-screen for LGR2 antagonist project, cell-based, plate reader, cherry pick (AID 743444); assay type: functional;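 further: transfected HEK 293 cells stimulated with alpha-MSH peptide; potency of inhibitors of the alpha-MSH evoked signal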
[3] = LGR2 antagonists, dose response, cell-based, HEK293, CRE-luciferase reporter, cherry pick, set 2 (AID 743343); assay type: functional;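 further: transfected cells were stimulated with diluted bursicon conditioned medium after compound addition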
[4] = microbe, parasite or virus in culture; assay type: functional; conditions: Mycobacterium tuberculosis
[5] = biological target: Luciferin 4-monooxygenase (Photinus pyralis, UniProt P08659); experiment: Counter Screen for Luciferase-based Assay Positives. [Related pubchem assays: 620, 618, 411 ]
Luciferin 4-monooxygenase, sequence (P08659 whole entry): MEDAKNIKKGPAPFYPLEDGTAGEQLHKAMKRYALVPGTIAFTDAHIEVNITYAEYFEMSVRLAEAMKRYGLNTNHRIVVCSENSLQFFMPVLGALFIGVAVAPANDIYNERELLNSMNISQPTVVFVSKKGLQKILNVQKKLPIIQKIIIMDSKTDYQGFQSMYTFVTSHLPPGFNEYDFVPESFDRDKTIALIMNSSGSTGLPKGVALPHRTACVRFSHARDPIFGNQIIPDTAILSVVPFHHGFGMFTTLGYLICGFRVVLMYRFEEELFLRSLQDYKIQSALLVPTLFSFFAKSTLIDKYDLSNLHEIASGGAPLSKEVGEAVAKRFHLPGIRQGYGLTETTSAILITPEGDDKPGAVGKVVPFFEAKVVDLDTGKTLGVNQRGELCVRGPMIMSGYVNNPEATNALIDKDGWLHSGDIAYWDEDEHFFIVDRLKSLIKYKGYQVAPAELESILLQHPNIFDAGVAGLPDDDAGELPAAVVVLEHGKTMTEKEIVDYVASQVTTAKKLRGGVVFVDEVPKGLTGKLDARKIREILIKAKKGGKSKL

[6] = HepG2 cell cytotoxicity, dose response, cytotoxicity control, plate reader, cherry-pick, antagonist series (AID 743416); assay type: functional, cell-based
[7] = HEK293 cell cytotoxicity, dose response, cytotoxicity control, plate reader, cherry-picked samples (AID 743446); assay type: functional, cell-based
[8] = biological target: T1, Heat shock factor protein 1 (Mus musculus, UniProt P38532); experiment: inhibition of MG132-induced HSE-luciferase signal, confirmation, cell-based, NIH3T3, luminescence, dose retest (AID 2382); assay type: functional;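 further: NIH3T3 fibroblasts with HSF1-driven luciferase reporter stressed by proteasome inhibitor MG132; luminescence from HSF1-driven luciferase expression after 8 hours of MG132 stress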
T1 sequence (P38532 whole entry): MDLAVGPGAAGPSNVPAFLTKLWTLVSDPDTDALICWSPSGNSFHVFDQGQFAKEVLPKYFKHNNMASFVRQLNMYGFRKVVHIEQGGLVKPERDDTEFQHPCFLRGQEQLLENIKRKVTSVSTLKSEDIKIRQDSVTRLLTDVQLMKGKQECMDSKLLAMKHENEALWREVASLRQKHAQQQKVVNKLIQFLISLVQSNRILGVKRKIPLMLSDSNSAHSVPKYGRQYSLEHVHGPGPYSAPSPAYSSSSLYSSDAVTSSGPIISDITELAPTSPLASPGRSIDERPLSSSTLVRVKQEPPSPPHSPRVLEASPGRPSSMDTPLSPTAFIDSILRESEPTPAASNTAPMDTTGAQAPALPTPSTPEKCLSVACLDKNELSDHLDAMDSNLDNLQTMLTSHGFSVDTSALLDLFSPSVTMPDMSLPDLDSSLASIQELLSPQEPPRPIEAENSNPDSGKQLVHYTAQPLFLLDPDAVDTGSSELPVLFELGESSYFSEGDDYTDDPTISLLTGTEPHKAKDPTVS

[9] = cytotoxicity in HEK-293T cells, dose response, cytotoxicity control for BCR NF-kB inhibitor project, luminescence, B-cell screen hits (AID 489021); assay type: functional, cell-based;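 further: HEK-293T cells carrying an NF-kB luciferase reporter; cells exposed to compound for about 14 hours before viability readout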
[10] = biological target: Glyceraldehyde-3-phosphate dehydrogenase (Homo sapiens, UniProt P04406)
Glyceraldehyde-3-phosphate dehydrogenase, sequence (P04406 whole entry): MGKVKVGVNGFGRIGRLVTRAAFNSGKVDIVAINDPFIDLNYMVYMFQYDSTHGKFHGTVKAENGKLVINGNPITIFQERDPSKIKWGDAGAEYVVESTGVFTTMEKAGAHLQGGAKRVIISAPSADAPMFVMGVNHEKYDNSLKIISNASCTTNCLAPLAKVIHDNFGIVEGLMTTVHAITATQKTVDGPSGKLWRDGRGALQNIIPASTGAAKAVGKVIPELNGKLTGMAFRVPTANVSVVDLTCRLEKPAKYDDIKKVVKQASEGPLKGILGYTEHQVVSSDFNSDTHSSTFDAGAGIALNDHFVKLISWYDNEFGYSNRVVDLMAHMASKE

[11] = biological target: T2, Sentrin-specific protease 8 (Homo sapiens, UniProt Q96LD8); assay type: functional;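 further: luminescence read-out of SENP8 inhibition, dose-response confirmation following an ultra-high-throughput screen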
T2 sequence (Q96LD8 whole entry): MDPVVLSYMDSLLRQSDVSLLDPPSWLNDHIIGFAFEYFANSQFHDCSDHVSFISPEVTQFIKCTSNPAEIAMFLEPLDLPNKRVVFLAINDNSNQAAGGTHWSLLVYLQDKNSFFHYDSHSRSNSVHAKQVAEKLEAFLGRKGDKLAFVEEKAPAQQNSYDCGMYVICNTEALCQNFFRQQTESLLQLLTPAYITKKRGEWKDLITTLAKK

[12] = biological target: T3, Caspase-3 (Homo sapiens, UniProt P42574); assay type: functional;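 further: Dose-response selectivity test against caspase-3 for candidate inhibitors of sentrin-specific proteases (SENPs)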
T3 sequence (P42574 whole entry): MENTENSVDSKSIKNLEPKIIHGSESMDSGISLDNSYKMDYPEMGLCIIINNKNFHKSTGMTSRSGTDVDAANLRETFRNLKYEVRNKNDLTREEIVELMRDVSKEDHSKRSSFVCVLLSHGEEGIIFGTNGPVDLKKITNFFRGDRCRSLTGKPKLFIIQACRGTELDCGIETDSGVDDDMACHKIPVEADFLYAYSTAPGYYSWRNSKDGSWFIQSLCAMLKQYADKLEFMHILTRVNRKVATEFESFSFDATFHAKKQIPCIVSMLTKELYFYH

[13] = biological target: Heat shock protein HSP 90-alpha (Homo sapiens, UniProt P07900); experiment: Luminescence-based dose response biochemical high throughput screening assay for inhibitors of the Heat Shock Protein 90 (HSP90). [Related pubchem assays: 1831 (Summary AID.), 1846 (Confirmation screen.), 1789 (Primary screen.)]
[14] = biological target: T4, Sentrin-specific protease 6 (Homo sapiens, UniProt Q9GZR1); assay type: functional;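 further: Luminescence-based dose-response confirmatory assay of SENP6 inhibition, following up an ultra-high-throughput screen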
T4 sequence (Q9GZR1 whole entry): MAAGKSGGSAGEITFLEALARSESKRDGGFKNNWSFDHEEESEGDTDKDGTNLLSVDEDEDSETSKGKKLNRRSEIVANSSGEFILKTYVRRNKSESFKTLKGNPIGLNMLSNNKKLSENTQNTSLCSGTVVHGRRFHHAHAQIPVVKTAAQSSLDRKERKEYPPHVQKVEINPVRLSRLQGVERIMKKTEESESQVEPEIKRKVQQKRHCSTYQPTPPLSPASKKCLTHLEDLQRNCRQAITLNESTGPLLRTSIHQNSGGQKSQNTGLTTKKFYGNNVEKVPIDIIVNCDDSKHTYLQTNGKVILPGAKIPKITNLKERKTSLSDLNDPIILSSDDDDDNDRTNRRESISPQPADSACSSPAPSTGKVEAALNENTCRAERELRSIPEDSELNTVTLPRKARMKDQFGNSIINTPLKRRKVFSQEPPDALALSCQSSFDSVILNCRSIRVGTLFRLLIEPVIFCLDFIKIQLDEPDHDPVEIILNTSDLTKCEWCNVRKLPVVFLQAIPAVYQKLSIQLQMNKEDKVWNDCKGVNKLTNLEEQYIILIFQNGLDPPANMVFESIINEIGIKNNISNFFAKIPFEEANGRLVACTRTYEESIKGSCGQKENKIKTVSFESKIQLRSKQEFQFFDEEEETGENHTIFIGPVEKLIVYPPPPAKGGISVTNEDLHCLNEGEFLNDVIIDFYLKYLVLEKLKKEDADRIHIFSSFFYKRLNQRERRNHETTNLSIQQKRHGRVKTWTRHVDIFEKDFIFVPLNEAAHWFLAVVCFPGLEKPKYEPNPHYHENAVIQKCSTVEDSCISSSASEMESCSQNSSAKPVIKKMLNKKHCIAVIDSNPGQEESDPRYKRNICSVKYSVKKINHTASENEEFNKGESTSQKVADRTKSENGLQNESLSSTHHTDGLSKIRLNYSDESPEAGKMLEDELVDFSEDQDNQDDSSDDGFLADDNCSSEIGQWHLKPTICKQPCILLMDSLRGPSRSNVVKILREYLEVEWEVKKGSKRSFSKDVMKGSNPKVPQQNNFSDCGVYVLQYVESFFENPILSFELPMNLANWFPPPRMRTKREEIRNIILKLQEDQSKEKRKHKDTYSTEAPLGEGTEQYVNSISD

[15] = biological target: T5, Sentrin-specific protease 7 (Homo sapiens, UniProt Q9BQF6); assay type: functional;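 further: Luminescence-based dose-response confirmation of ultra-high-throughput screening hits, measuring inhibition of SENP7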
T5 sequence (Q9BQF6 whole entry): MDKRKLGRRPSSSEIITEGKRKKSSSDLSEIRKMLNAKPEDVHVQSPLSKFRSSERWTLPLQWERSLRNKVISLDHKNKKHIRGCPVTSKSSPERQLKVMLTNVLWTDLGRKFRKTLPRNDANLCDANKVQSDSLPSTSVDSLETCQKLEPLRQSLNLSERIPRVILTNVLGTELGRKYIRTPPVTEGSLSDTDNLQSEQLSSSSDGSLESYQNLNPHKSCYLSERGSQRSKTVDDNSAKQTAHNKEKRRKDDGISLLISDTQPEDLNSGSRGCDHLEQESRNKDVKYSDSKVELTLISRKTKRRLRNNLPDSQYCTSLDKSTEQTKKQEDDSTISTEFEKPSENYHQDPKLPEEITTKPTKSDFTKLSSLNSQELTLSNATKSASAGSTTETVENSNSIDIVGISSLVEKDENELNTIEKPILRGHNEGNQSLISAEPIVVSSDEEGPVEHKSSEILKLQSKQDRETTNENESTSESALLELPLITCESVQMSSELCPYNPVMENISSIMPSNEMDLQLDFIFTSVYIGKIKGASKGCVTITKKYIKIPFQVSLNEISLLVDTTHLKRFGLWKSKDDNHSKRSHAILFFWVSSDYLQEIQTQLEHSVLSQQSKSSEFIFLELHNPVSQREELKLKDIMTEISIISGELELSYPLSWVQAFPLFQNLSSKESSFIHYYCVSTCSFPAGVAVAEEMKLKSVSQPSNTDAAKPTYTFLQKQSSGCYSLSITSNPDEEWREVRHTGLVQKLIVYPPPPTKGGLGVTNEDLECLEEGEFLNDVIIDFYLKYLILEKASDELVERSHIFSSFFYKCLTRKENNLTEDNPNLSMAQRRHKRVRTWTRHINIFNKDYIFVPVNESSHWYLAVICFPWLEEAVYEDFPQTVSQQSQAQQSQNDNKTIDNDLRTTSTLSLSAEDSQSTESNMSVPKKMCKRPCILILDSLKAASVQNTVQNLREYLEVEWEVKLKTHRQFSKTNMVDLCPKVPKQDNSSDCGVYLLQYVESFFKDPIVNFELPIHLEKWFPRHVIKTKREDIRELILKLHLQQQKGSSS

[16] = biological target: Prothrombin (Homo sapiens, UniProt P00734); experiment: Thrombin 1536 HTS Dose Response Confirmation. [Related pubchem assays: 1046 (Thrombin 1536 HTS; hits were confirmed in this assay)]; assay type: functional

CC(C)(C)c1ccc(-c2nc(-c3ccncc3)no2)cc1
EC50 [1]: > 50 µM (not active) | AC50 [2]: 20.8 µM (active) | AC50 [3]: 12.9 µM (active) | CC50 [4]: 34.2 µM (active) | EC50 [5]: 0.57 µM (active) | AC50 [6]: 30.1 µM (active) | AC50 [7]: > 52 µM (inactive)

Cc1cc(C)n(-c2nc3ccccc3nc2N2CCC(C)CC2)n1
EC50 [1]: > 50 µM (not active) | EC50 [5]: 1.01 µM (active)

O=C(O)CCSc1nc2ccccc2s1
EC50 [8]: 6.83 µM (active) | EC50 [1]: > 50 µM (not active) | EC50 [5]: > 100 µM (not active) | IC50 [9]: > 80 µM (inactive) | IC50 [10]: > 100 µM (not active)

CN1C(=O)S/C(=C/c2ccc(OCc3cccc(C(=O)O)c3)cc2)C1=O
IC50 [11]: 8.88 µM (active) | IC50 [12]: 88.1 µM (active) | IC50 [13]: > 20 µM (not active) | IC50 [14]: 4.42 µM (active) | IC50 [15]: 6.05 µM (active)

CCCCN1C(=O)NC(=O)C2(Cc3c(nc4ccccn4c3=O)N3CCc4ccccc4C32)C1=O (stereo not given)
IC50 [16]: 5.42 µM (active)
